Measured values: US4698327A, “Novel glycopeptide derivatives” (priority 1986, dated 1987)
≈ marks a conversion by molar mass, not a printed value.

Experiments:
[1] = system: Staphylococcus aureus X400; experiment: MIC, standard agar-dilution assay; format: cell-based
[2] = system: Streptococcus pneumoniae Park 1; format: cell-based; conditions: agar dilution
[3] = system: Staphylococcus epidermidis 222; experiment: MIC, standard agar-dilution assay; format: cell-based
[4] = system: Streptococcus faecium ATCC 9790; experiment: MIC, standard agar-dilution assay; format: cell-based
Escherichia coli EC14 = experiment: MIC, standard agar-dilution assay; format: cell-based
[5] = system: Haemophilus influenzae 76; experiment: MIC, standard agar-dilution assay; format: cell-based
Escherichia coli TEM = experiment: MIC, standard agar-dilution assay; format: cell-based
[6] = system: Haemophilus influenzae C.L.; experiment: MIC, standard agar-dilution assay; format: cell-based
[7] = system: Staphylococcus aureus S13E; format: cell-based; conditions: agar dilution
[8] = system: Klebsiella pneumoniae X26; experiment: MIC, standard agar-dilution assay; format: cell-based
[9] = system: Staphylococcus epidermidis EPI1; format: cell-based; conditions: agar dilution
[10] = system: Streptococcus sp. group D 2041; experiment: MIC, standard agar-dilution assay; format: cell-based
[11] = system: Klebsiella pneumoniae KAE; experiment: MIC, standard agar-dilution assay; format: cell-based
[12] = system: Staphylococcus aureus NRRL B313; conditions: agar dilution
[13] = system: Staphylococcus aureus V41; experiment: MIC, standard agar-dilution assay; format: cell-based
[14] = system: Streptococcus pyogenes C203; experiment: MIC, standard agar-dilution assay; format: cell-based
Escherichia coli N10 = experiment: MIC, standard agar-dilution assay; format: cell-based
[15] = system: Klebsiella pneumoniae X68; experiment: MIC, standard agar-dilution assay; format: cell-based

Compound | MIC [1] | MIC [2] | MIC [3] | MIC [4] | MIC (Escherichia coli EC14) | MIC [5] | MIC (Escherichia coli TEM) | MIC [6] | MIC [7] | MIC [8] | MIC [9] | MIC [10] | MIC [11] | MIC [12] | MIC [13] | MIC [14] | MIC (Escherichia coli N10) | MIC [15]
CCCCCCCNC1(C)CC(OC2C(Oc3c4cc5cc3Oc3ccc(cc3Cl)C(O)C3NC(=O)C(NC(=O)C5NC(=O)C(CC(N)=O)NC(=O)C(NC(=O)C(CC(C)C)NC)C(O)c5ccc(c(Cl)c5)O4)c4ccc(O)c(c4)-c4c(O)cc(O)cc4C(C(=O)O)NC3=O)OC(CO)C(O)C2O)OC(C)C1O (stereo not drawn) [Compound 10, N^van --(n-heptyl)vancomycin] | 0.5 µg/mL (≈ 0.323 µM) | 0.125 µg/mL (≈ 0.0808 µM) | 1 µg/mL (≈ 0.646 µM) | 0.5 µg/mL (≈ 0.323 µM) | > 128 µg/mL | 128 µg/mL (≈ 82.7 µM) | > 128 µg/mL | 128 µg/mL (≈ 82.7 µM) | 0.5 µg/mL (≈ 0.323 µM) | > 128 µg/mL | 2 µg/mL (≈ 1.29 µM) | 1 µg/mL (≈ 0.646 µM) | > 128 µg/mL | 0.25 µg/mL (≈ 0.162 µM) | 0.5 µg/mL (≈ 0.323 µM) | 0.5 µg/mL (≈ 0.323 µM) | > 128 µg/mL | > 128 µg/mL
CCCCCCCCCCNC1(C)CC(OC2C(Oc3c4cc5cc3Oc3ccc(cc3Cl)C(O)C3NC(=O)C(NC(=O)C5NC(=O)C(CC(N)=O)NC(=O)C(NC(=O)C(N)CC(C)C)C(O)c5ccc(c(Cl)c5)O4)c4ccc(O)c(c4)-c4c(O)cc(O)cc4C(C(=O)O)NC3=O)OC(CO)C(O)C2O)OC(C)C1O (stereo not drawn) [Compound 26, N^van --(n-decyl)-A51568A] | 0.25 µg/mL (≈ 0.159 µM) | 0.25 µg/mL (≈ 0.159 µM) | 0.25 µg/mL (≈ 0.159 µM) | 0.5 µg/mL (≈ 0.317 µM) | > 128 µg/mL | 128 µg/mL (≈ 81.2 µM) | > 128 µg/mL | 128 µg/mL (≈ 81.2 µM) | 0.25 µg/mL (≈ 0.159 µM) | > 128 µg/mL | 0.5 µg/mL (≈ 0.317 µM) | 0.5 µg/mL (≈ 0.317 µM) | > 128 µg/mL | 0.25 µg/mL (≈ 0.159 µM) | 0.25 µg/mL (≈ 0.159 µM) | 0.25 µg/mL (≈ 0.159 µM) | > 128 µg/mL | > 128 µg/mL
CCCCCCCCCCNC1(C)CC(OC2C(Oc3c4cc5cc3Oc3ccc(cc3Cl)C(O)C(NC(=O)C(CC(C)C)N(C)CCCCCCCCCC)C(=O)NC(CC(N)=O)C(=O)NC5C(=O)NC3C(=O)NC(C(=O)NC(C(=O)O)c5cc(O)cc(O)c5-c5cc3ccc5O)C(O)c3ccc(c(Cl)c3)O4)OC(CO)C(O)C2O)OC(C)C1O (stereo not drawn) [Compound 4, N^van, N^leu --di(n-decyl)vancomycin] | 4 µg/mL (≈ 2.31 µM) | 4 µg/mL (≈ 2.31 µM) | 4 µg/mL (≈ 2.31 µM) | 4 µg/mL (≈ 2.31 µM) | > 128 µg/mL | > 128 µg/mL | > 128 µg/mL | > 128 µg/mL | 4 µg/mL (≈ 2.31 µM) | > 128 µg/mL | 16 µg/mL (≈ 9.25 µM) | 4 µg/mL (≈ 2.31 µM) | > 128 µg/mL | 2 µg/mL (≈ 1.16 µM) | 4 µg/mL (≈ 2.31 µM) | 2 µg/mL (≈ 1.16 µM) | > 128 µg/mL | > 128 µg/mL
CCCCCCCCCCNC1(C)CC(OC2C(Oc3c4cc5cc3Oc3ccc(cc3Cl)C(O)C(NC(=O)C(CC(C)C)[N+](C)(C)C)C(=O)NC(CC(N)=O)C(=O)NC5C(=O)NC3C(=O)NC(C(=O)NC(C(=O)[O-])c5cc(O)cc(O)c5-c5cc3ccc5O)C(O)c3ccc(c(Cl)c3)O4)OC(CO)C(O)C2O)OC(C)C1O (stereo not drawn) [Compound 124, N^van --(n-decyl)-M43A] | 0.5 µg/mL (≈ 0.309 µM) | 0.5 µg/mL (≈ 0.309 µM) | 0.5 µg/mL (≈ 0.309 µM) | 0.5 µg/mL (≈ 0.309 µM) | 64 µg/mL (≈ 39.6 µM) | > 64 µg/mL | > 64 µg/mL | > 64 µg/mL | 0.5 µg/mL (≈ 0.309 µM) | > 64 µg/mL | 1 µg/mL (≈ 0.618 µM) | 0.5 µg/mL (≈ 0.309 µM) | > 64 µg/mL | 0.5 µg/mL (≈ 0.309 µM) | 0.5 µg/mL (≈ 0.309 µM) | 0.25 µg/mL (≈ 0.155 µM) | > 64 µg/mL | > 64 µg/mL
CCCCNC1(C)CC(OC2C(Oc3c4cc5cc3Oc3ccc(cc3Cl)C(O)C3NC(=O)C(NC(=O)C5NC(=O)C(CC(N)=O)NC(=O)C(NC(=O)C(CC(C)C)NC)C(O)c5ccc(c(Cl)c5)O4)c4ccc(O)c(c4)-c4c(O)cc(O)cc4C(C(=O)O)NC3=O)OC(CO)C(O)C2O)OC(C)C1O (stereo not drawn) [Compound 17, N^van --(n-butyl)vancomycin] | 1 µg/mL (≈ 0.664 µM) | 0.5 µg/mL (≈ 0.332 µM) | 2 µg/mL (≈ 1.33 µM) | 2 µg/mL (≈ 1.33 µM) | > 128 µg/mL | 128 µg/mL (≈ 85 µM) | > 128 µg/mL | 128 µg/mL (≈ 85 µM) | 1 µg/mL (≈ 0.664 µM) | > 128 µg/mL | 4 µg/mL (≈ 2.66 µM) | 4 µg/mL (≈ 2.66 µM) | > 128 µg/mL | 1 µg/mL (≈ 0.664 µM) | 1 µg/mL (≈ 0.664 µM) | 1 µg/mL (≈ 0.664 µM) | > 128 µg/mL | > 128 µg/mL
CCCCCNC1(C)CC(OC2C(Oc3c4cc5cc3Oc3ccc(cc3Cl)C(O)C3NC(=O)C(NC(=O)C5NC(=O)C(CC(N)=O)NC(=O)C(NC(=O)C(CC(C)C)NC)C(O)c5ccc(c(Cl)c5)O4)c4ccc(O)c(c4)-c4c(O)cc(O)cc4C(C(=O)O)NC3=O)OC(CO)C(O)C2O)OC(C)C1O (stereo not drawn) [Compound 15, N^van --(n-pentyl)vancomycin] | 1 µg/mL (≈ 0.658 µM) | 0.125 µg/mL (≈ 0.0823 µM) | 1 µg/mL (≈ 0.658 µM) | 1 µg/mL (≈ 0.658 µM) | > 128 µg/mL | 128 µg/mL (≈ 84.2 µM) | > 128 µg/mL | 128 µg/mL (≈ 84.2 µM) | 1 µg/mL (≈ 0.658 µM) | > 128 µg/mL | 2 µg/mL (≈ 1.32 µM) | 2 µg/mL (≈ 1.32 µM) | > 128 µg/mL | 0.5 µg/mL (≈ 0.329 µM) | 1 µg/mL (≈ 0.658 µM) | 0.5 µg/mL (≈ 0.329 µM) | > 128 µg/mL | > 128 µg/mL
CCCNC1(C)CC(OC2C(Oc3c4cc5cc3Oc3ccc(cc3Cl)C(O)C(NC(=O)C(CC(C)C)N(C)CCC)C(=O)NC(CC(N)=O)C(=O)NC5C(=O)NC3C(=O)NC(C(=O)NC(C(=O)O)c5cc(O)cc(O)c5-c5cc3ccc5O)C(O)c3ccc(c(Cl)c3)O4)OC(CO)C(O)C2O)OC(C)C1O (stereo not drawn) [Compound 22, N^van, N^leu --di(n-propyl)vancomycin] | 2 µg/mL (≈ 1.3 µM) | 1 µg/mL (≈ 0.652 µM) | 4 µg/mL (≈ 2.61 µM) | 2 µg/mL (≈ 1.3 µM) | > 128 µg/mL | 128 µg/mL (≈ 83.5 µM) | > 128 µg/mL | > 128 µg/mL | 2 µg/mL (≈ 1.3 µM) | > 128 µg/mL | 4 µg/mL (≈ 2.61 µM) | 8 µg/mL (≈ 5.22 µM) | > 128 µg/mL | 2 µg/mL (≈ 1.3 µM) | 2 µg/mL (≈ 1.3 µM) | 2 µg/mL (≈ 1.3 µM) | > 128 µg/mL | > 128 µg/mL
CCCCCCNC1(C)CC(OC2C(Oc3c4cc5cc3Oc3ccc(cc3Cl)C(O)C3NC(=O)C(NC(=O)C5NC(=O)C(CC(N)=O)NC(=O)C(NC(=O)C(CC(C)C)NC)C(O)c5ccc(c(Cl)c5)O4)c4ccc(O)c(c4)-c4c(O)cc(O)cc4C(C(=O)O)NC3=O)OC(CO)C(O)C2O)OC(C)C1O (stereo not drawn) [Compound 13, N^van --(n-hexyl)vancomycin] | 1 µg/mL (≈ 0.652 µM) | 0.125 µg/mL (≈ 0.0815 µM) | 1 µg/mL (≈ 0.652 µM) | 1 µg/mL (≈ 0.652 µM) | > 128 µg/mL | 128 µg/mL (≈ 83.5 µM) | > 128 µg/mL | 128 µg/mL (≈ 83.5 µM) | 0.5 µg/mL (≈ 0.326 µM) | > 128 µg/mL | 2 µg/mL (≈ 1.3 µM) | 1 µg/mL (≈ 0.652 µM) | > 128 µg/mL | 0.5 µg/mL (≈ 0.326 µM) | 1 µg/mL (≈ 0.652 µM) | 0.5 µg/mL (≈ 0.326 µM) | > 128 µg/mL | > 128 µg/mL
CCCCNC1(C)CC(OC2C(Oc3c4cc5cc3Oc3ccc(cc3Cl)C(O)C(NC(=O)C(CC(C)C)N(C)CCCC)C(=O)NC(CC(N)=O)C(=O)NC5C(=O)NC3C(=O)NC(C(=O)NC(C(=O)O)c5cc(O)cc(O)c5-c5cc3ccc5O)C(O)c3ccc(c(Cl)c3)O4)OC(CO)C(O)C2O)OC(C)C1O (stereo not drawn) [Compound 19, N^van, N^leu --di(n-butyl)vancomycin] | 1 µg/mL (≈ 0.64 µM) | 0.5 µg/mL (≈ 0.32 µM) | 1 µg/mL (≈ 0.64 µM) | 1 µg/mL (≈ 0.64 µM) | > 128 µg/mL | 128 µg/mL (≈ 82 µM) | > 128 µg/mL | > 128 µg/mL | 1 µg/mL (≈ 0.64 µM) | > 128 µg/mL | 2 µg/mL (≈ 1.28 µM) | 2 µg/mL (≈ 1.28 µM) | > 128 µg/mL | 0.5 µg/mL (≈ 0.32 µM) | 1 µg/mL (≈ 0.64 µM) | 0.5 µg/mL (≈ 0.32 µM) | > 128 µg/mL | > 128 µg/mL
